Source: patent US10071103B2, “Treatments for resistant acne” (VYOME BIOSCIENCES PVT. LTD., priority 2014, dated 2018)
Values after ≈ are worked out from the molar mass of the structure shown.

Assays:
IL-8 = test: P. acnes-induced IL-8 release in THP-1 cells (ELISA); type: cell-based; conditions: THP-1 cells
Description: (§1) Method: Preparation of Stimulant for Inflammation: P. acnes culture suspension was prepared in PBS and the cell number in the suspension was adjusted to approximately 5×10^8 CFU/ml by measuring the cell density using a Densimat. The bacterial suspension was then heat killed at 80° C. for 30 min and stored at −80° C. until further use.
(§2) Cells were seeded in a 96-well format (2×10^5 THP-1 cells per well) in media containing 10% FBS. The cells were stimulated to induce inflammatory cytokines using 3 McFarland equivalent heat-killed P. acnes. Cells in control wells were treated with PBS. One hour after induction with P. acnes, test agents were added to the induced cells at appropriate concentrations to be tested (compound 91 at 25 μg/ml). The plates were incubated at 37° C. for 24 hours. After 24 h, the plates were centrifuged to pellet the cells and the supernatants were collected. The cell culture supernatants thus obtained were analyzed for levels of cytokines (IL-1α, IL-1β, IL-6 and IL-8) by ELISA using R&D Systems kits for individual cytokines following the manufacturer's instructions.
as §1, with “Preparation” for “Method: Preparation”, “stimulant” for “Stimulant”, “inflammation:” for “Inflammation:”
(§3) Cells were seeded in a 96-well format (2×10^5 THP-1 cells per well) in media containing 10% FBS. The cells were stimulated to induce inflammatory cytokines using 3 McFarland equivalent heat-killed P. acnes. Cells in control wells were treated with PBS. One hour after induction with P. acnes, test agents were added to the induced cells at appropriate concentrations (Besifloxacin at 10 and 30 μg/ml; Adapalene at 0.04 and 0.4 μg/ml). The plates were incubated at 37° C. for 24 hours. After 24 h, the plates were centrifuged to pellet the cells and the supernatants were collected. The cell culture supernatants thus obtained were analyzed for cytokine levels (IL-6 and IL-8) by ELISA using R&D Systems kits for individual cytokines following the manufacturer's instructions.

IL-6 = test: P. acnes-induced IL-6 release in THP-1 cells (ELISA); type: cell-based; conditions: THP-1 cells
Description: as §1, §2
as §1, with “Preparation” for “Method: Preparation”, “stimulant” for “Stimulant”, “inflammation:” for “Inflammation:”
as §3

P. acnes CCARM 9010 [1] = test: In vitro time kill kinetics, P. acnes CCARM 9010; type: cell-based, Propionibacterium acnes; conditions: 2.5 μg/ml
Description: P. acnes (CCARM 9010) Aqueous Suspension (0.5 McFarland standard equivalent) was centrifuged at 2000 rpm for 20 min, pellet was resuspended in Brain Heart Infusion (BHI) broth. Resultant P. acnes suspension was kept for overnight (16 h) incubation in anaerobic box at 37° C. Stock solution of besifloxacin.HCl (1 mg/ml) was prepared in dimethyl sulphoxide (DMSO) which was further diluted with BHI broth to achieve working stock of besifloxacin.HCl (25 μg/ml). Then reaction mixture was prepared by adding 900 μl of P. acnes 0.5 McFarland standard culture (after 16 h incubation) to 100 μl of besifloxacin.HCl working stock solution (25 μg/ml), final besifloxacin.HCl concentration in reaction mixture was 2.5 μg/ml. Reaction mixture (1 ml) was incubated at 37° C. for 24 h in an anaerobic box in two sets—(1) tube with P. acnes with 2.5 μg/ml Besifloxacin.HCl and 2) broth control without besifloxacin.HCl. At predetermined time points (1 h, 6 h and 24 h), cells were collected and plated in duplicate after serial dilution in Brain Heart Infusion agar plate. Plates were allowed to grow for 3 days at 37° C. in anaerobic box. After incubation, plates were counted to determine colony forming units (CFU) and log reduction was calculated. In a similar experimental set-up, water was used as solvent instead of DMSO and effects of solvents on time kill kinetics were also studied.
2) Zone of Inhibition (ZOI): For ZOI test, BHA plates were spread with 100 μl of P. acnes suspension (0.5 McFarland standard equal). Test samples (drugs/formulations) were dissolved in water/solvent based on the solubility. Sterile disc (6 mm) were loaded with 10 μl of test samples (of various concentration of drug), and were placed above the plates containing P. acnes culture. Then, plates were incubated at 37° C. for 48 h, followed by their ZOI measurements. 3) Time Kill Kinetics (TK): For TK Test, P. acnes (CCARM 9010) aqueous suspension (0.5 McFarland standard equivalent) was centrifuged at 2000 rpm for 20 min, pellet was resuspended in brain heart infusion (BHI) broth. Resultant P. acnes suspension was kept for overnight (16 h) incubation in anaerobic box at 37° C. Stock solution of besifloxacin.HCl (1 mg/ml) was prepared in dimethyl sulphoxide (DMSO) which was further diluted with BHI broth to obtain working stock of besifloxacin.HCl (25 μg/ml). Then reaction mixture was prepared by adding 900 μl of P. acnes 0.5 McFarland standard equal culture (after 16 h of incubation) and 100 μl of besifloxacin.HCl working stock (25 μg/ml), to obtain final besifloxacin.HCl concentration in reaction mixture, 2.5 μg/ml. Reaction mixture (1 ml) was incubated at 37° C. in an anaerobic box—(1) tube with P. acnes and 2.5 μg/ml Besifloxacin.HCl and 2) broth control without besifloxacin.HCl for 24 h. At predetermined time points (0 h, 2 h, 8 h and 24 h), cells were collected and plated in duplicate after serial dilution in brain heart infusion agar plate. Plates were allowed to grow for 3 days at 37° C. in anaerobic box. After incubation, plates were counted to determine colony forming units (CFU) and log reduction was calculated.
0.5 McFarland standard equal P. acnes (CCARM 9010) culture was prepared in sterile water. Prepared culture was centrifuged at 2000 rpm for 20 min then supernatant was removed and similar amount of brain heart infusion (BHI) broth was added. P. acnes culture in BHI broth was kept for overnight (16 h.) incubation in anaerobic box at 37° C. Besifloxacin powder was diluted in water and DMSO to prepare 1 mg/ml stock and then both were further diluted in BHI broth to make final concentration of 100 μg/ml. 900 μl of P. acnes 0.5 McFarland culture (after 16 h. incubation) and 100 μl of diluted Besifloxacin (100 μg/ml) were mixed to obtain final Besifloxacin concentration 10 μg/ml in reaction mixture. Total reaction mixture (1 ml) was incubated at 37° C. in an anaerobic box.

S. aureus MTCC 6908 = test: MIC by micro broth dilution, laboratory S. aureus strain; type: cell-based, Staphylococcus aureus; conditions: Staphylococcus aureus, MTCC6908; Table 6; read-out: MIC Susceptible S. aureus (6908) strain
Description: (§4) The plates were incubated at 37° C. for 48 h under anaerobic condition for P. acnes and 37° C. for 24 h for S. aureus The plates were read under Bio-Rad plate reader at 595 nm for optical density to generate the dose-response curves. The MIC of the test compound was recorded by addition of Alamar blue dye.
S. aureus MTCC 6908 were grown in Tryptone Soya Agar (TSA) at 37° C. for 24 hours. […] Plates were incubated at 37° C. for 24 hours. […] (2) Zone of Inhibition (ZOI): S. aureus MTCC 6908 were grown in Tryptone Soya Agar (TSA) at 37° C. for 24 hours. BHA plates are spreaded with 100 μl of 0.5 McFarland standard equal bacterial suspension. Test samples (drugs/formulations) were dissolved in water/solvent based on the solubility. Sterile disc (6 mm) were loaded with 10 μl of test samples (of various concentration of drug), and were placed above the spreaded plates. Plates were incubated at 37 C for 24 h, followed by ZOI measurement. (3) Time Kill Assay: 0.5 McFarland standard equal S. aureus culture was prepared in sterile water. Besifloxacin gels were diluted in Tryptone Soya broth (TSB) to get final concentration of 25 μg/ml. Then 900 μl of S. aureus 0.5 McFarland standard equal culture and 100 μl of diluted Besifloxacin gel was mixed to obtain final Besifloxacin concentration, 2.5 μl g/ml. Total reaction mixture (1 ml) was incubated at 37° C. in a tube rotator. After 2 and 6 h exposure, bacterial suspension was placed on Tryptone soya agar plate and incubated at 37° C. for 24 h.
Inoculated plates were incubated at 37° C. for 24 hours.

P. acnes CCARM 9010 [2] = test: MIC by micro broth dilution (Alamar blue), clindamycin-resistant/nonresponsive P. acnes; type: cell-based, Propionibacterium acnes; conditions: for Activity / bacterial killing, dose response curve (in words): clindamycin-nonresponsive CCARM 9010
Description: as §4
(§5) P. acnes (MTCC 3297, MTCC 1951& CCARM 9010) are cultured in Brain Heart Infusion (BHI) Broth at 37° C. for 48-72 h under anaerobic condition. The test compounds/formulations are initially diluted with suitable solvent and further diluted with BHI broth to get the required concentrations. Samples (100 μl) of different concentrations (prepared by serial dilution) are added to 96-well plate. To the wells, 100 μl of P. acnes BHI broth culture is added [culture turbidity adjusted against 0.5 McFarland standard (approx 1.5×10^8), and further diluted 100-fold with sterile BHI broth]. In addition Growth Control and Sterility Control are created using 100 μl each of P. acnes BHI broth culture and plain BHI broth, respectively.
(§6) Plates are incubated at 37° C. for 48-72 hrs under anaerobic condition. The plate is read under Bio-Rad plate reader @ 595 nm for optical density to generate the dose-response curves. The MIC of the test compound is recorded by addition of Alamar blue dye.

E. coli DNA gyrase = molecular target: T1, E. coli DNA gyrase (Escherichia coli, UniProt P0AES4+P0AES6); test: DNA gyrase super-coiling activity assay (Topogen kit, relaxed pHOT1 plasmid); type: biochemical; conditions: 1 μM and 2.5 μM
T1 construct: purchased Topogen Inc
T1 sequence (P0AES4 whole entry, one chain of several): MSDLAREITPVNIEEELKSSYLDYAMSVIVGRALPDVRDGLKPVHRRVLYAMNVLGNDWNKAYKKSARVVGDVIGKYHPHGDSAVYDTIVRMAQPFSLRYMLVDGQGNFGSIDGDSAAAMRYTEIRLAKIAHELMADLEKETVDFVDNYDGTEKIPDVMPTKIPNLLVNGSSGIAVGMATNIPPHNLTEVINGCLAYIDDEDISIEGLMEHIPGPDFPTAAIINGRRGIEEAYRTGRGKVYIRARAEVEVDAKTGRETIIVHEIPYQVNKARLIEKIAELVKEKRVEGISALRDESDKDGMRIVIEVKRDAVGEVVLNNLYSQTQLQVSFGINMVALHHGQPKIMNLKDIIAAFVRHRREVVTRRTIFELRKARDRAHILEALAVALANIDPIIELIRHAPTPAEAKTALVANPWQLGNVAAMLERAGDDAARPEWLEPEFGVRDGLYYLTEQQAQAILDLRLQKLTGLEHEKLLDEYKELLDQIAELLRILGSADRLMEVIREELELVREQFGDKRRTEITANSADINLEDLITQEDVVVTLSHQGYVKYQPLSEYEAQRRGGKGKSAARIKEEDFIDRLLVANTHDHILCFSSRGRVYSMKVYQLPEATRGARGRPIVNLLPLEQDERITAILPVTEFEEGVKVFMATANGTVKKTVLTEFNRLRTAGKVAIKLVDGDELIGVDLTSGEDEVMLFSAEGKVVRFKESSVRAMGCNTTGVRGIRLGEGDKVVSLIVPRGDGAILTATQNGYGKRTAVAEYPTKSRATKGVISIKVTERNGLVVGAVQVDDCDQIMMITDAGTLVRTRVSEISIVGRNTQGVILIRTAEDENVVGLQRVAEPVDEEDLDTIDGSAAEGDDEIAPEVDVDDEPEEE
Description: DNA super-coiling activity was assayed using DNA gyrase assay kit (Topogen Inc.) with relaxed pHOT1 E. coli plasmid DNA according to manufacturer's protocol. The standard reaction mixture (20 μl) contained 35 mM Tris-HCl (pH 7.5), 24 mM KCl, 4 mM MgCl2, 2 mM dithiothreitol, 1.8 mM spermidine, 1 mM ATP, 6.5% glycerol, 0.1 mg/ml bovine serum albumin (BSA), 10 μg/ml relaxed pHOT1 plasmid DNA and 1 U of DNA gyrase. The reaction mixture was incubated at 37° C. for 1 h in presence of selected compounds/fluoroquinolone at different concentrations. The reaction was terminated by addition of ⅕ volume of loading dye (4 μl) followed by proteinase K (50 μg/ml) and again incubated at 37° C. for half an hour. 20 μl chloroform/isoamyl alcohol (24:1) was added to each tube and vortexed briefly. Thereafter, the blue aqueous phase was separated out and analyzed by 1% agarose gel electrophoresis. The gel was stained by ethidium bromide for half an hour and destained with water for 15 mins. The gel was then visualized in a trans-illuminator and photographed.

P. acnes MTCC 1951 = test: MIC by micro broth dilution (Alamar blue), clindamycin-susceptible P. acnes; type: cell-based, Propionibacterium acnes; conditions: for Activity / bacterial killing, dose response curve (in words): clindamycin-susceptible MTCC 1951
Description: as §4, §5, §6
BHI broth and BHI agar media were prepared as per the manufacturer's instruction and autoclaved at 121° C. for 15 minutes. […] For MIC determination testing, gels are dissolved in the solvent and further diluted with BHI broth. Then, 96 wells plate are filled with 100 μl of BHI broth containing drug with different concentration to get the final concentrations of 0.06, 0.13, 0.25, 0.5, 1 and 2 μg/ml in different lanes (lane 1 to lane 6). Remaining lanes of the 96 well plate are used as growth control and sterility control. Finally, P. acnes culture suspension (approx 1.5×10^6) is added in all the wells except sterility control wells and plate is incubated at 37° C. for 48-72 h under anaerobic condition. At the end of 72 h, Alamar blue solution (20 μl) is added into the wells and incubated at 37° C. for 2 h. Plate is visualized for bacterial inhibitions and MIC values of the tested samples are determined. […]

[3] = Cells + P. acnes + 10 μg/ml, 24 h, Table 70
[4] = Cells + P. acnes + 30 μg/ml, 24 h, Table 70
[5] = Cells + P. acnes + Besifloxacin•HCl 10 μg/ml, Table 71

Compound: Cl.N[C@@H]1CCCCN(c2c(F)cc3c(=O)c(C(=O)O)cn(C4CC4)c3c2Cl)C1 [Besifloxacin•HCl]
- Expression of Cytokines IL-8 (pg/ml) Mean (IL-8; [3]): 2484.8 pg/mL
- Expression of Cytokines IL-8 (pg/ml) Mean (IL-8; [4]): 2301.6 pg/mL
- Expression of Cytokines IL-8 (pg/ml) Mean (IL-8; [5]): 2484.76 pg/mL
- Expression of Cytokines IL-6 (pg/ml) Mean (IL-6; [3]): 282.45 pg/mL
- Expression of Cytokines IL-6 (pg/ml) Mean (IL-6; [4]): 124.58 pg/mL
- Expression of Cytokines IL-6 (pg/ml) Mean (IL-6; [5]): 282.45 pg/mL
- Log 10 value of P. acnes (P. acnes CCARM 9010 [1]; stock in DMSO, 0 h): 7.0 ± 0.02
- Log 10 value of P. acnes (P. acnes CCARM 9010 [1]; stock in DMSO, 1 h): 6.7 ± 0.03
- Log 10 value of P. acnes (P. acnes CCARM 9010 [1]; stock in DMSO, 6 h): 6.0 ± 0.05
- Log 10 value of P. acnes (P. acnes CCARM 9010 [1]; stock in DMSO, 24 h): 5.2 ± 0.02
- Log 10 value of P. acnes (P. acnes CCARM 9010 [1]; stock in water, 0 h): 7.0 ± 0.02
- Log 10 value of P. acnes (P. acnes CCARM 9010 [1]; stock in water, 1 h): 6.7 ± 0.03
- Log 10 value of P. acnes (P. acnes CCARM 9010 [1]; stock in water, 6 h): 6.0 ± 0.02
- Log 10 value of P. acnes (P. acnes CCARM 9010 [1]; stock in water, 24 h): 5.2 ± 0.02

Compound: Cc1ncc([N+](=O)[O-])n1CC(CCl)OC(=O)CN1CCN(c2cc3c(cc2F)c(=O)c(C(=O)O)c2n3C(C)S2)CC1 (stereo not shown) [Compound 90, 7-{4-[1-Chloromethyl-2-(2-methyl-5-nitro-imidazol-1-yl)-ethoxycarbonylmethyl]-piperazin-1-yl}-6-fluoro-1-methyl-4-oxo-4H-2-thia-8b-aza-cyclobuta[a]naphthalene-3-carboxylic acid]
- MIC (S. aureus MTCC 6908): 1 µg/mL (≈ 1.64 µM)
- MIC (P. acnes CCARM 9010 [2]; Cutibacterium acnes, CCARM9010, read-out: MIC Resistant P. acnes (9010) strain): 0.9 µg/mL (≈ 1.48 µM)
- Activity / bacterial killing, dose response curve (in words) (P. acnes CCARM 9010 [2]): shows activity
- Activity / bacterial killing, dose response curve (in words) (P. acnes CCARM 9010 [2]; listed as compound 90): promising activity
- Inhibition of super-coiling activity of DNA gyrase (in words) (E. coli DNA gyrase): able to inhibit the super-coiling activity
- MIC (P. acnes MTCC 1951; Cutibacterium acnes, MTCC1951, read-out: MIC Susceptible P. acnes (1951) strain): 1.7 µg/mL (≈ 2.79 µM)
- Activity / bacterial killing, dose response curve (in words) (P. acnes MTCC 1951): ineffective
- Activity / bacterial killing, dose response curve (in words) (P. acnes MTCC 1951; listed as compound 90): not active
